pEC50, pIC50: −log10 of the molar value. Where two headings read alike, the source gives them in different places.

What is called pIC50 is the negative decadic logarithm of the IC50, by convention in mol/L. By pEC50 is commonly meant the negative decadic logarithm of the EC50, by convention in mol/L. As a reminder, the CC50 is the concentration at which the toxic effect on the cells reaches its halfway point.

One data set concerns the target NS3 RNA binding (Hepatitis C virus genotype 1b, UniProt Q9WMX2). The data set is described as follows: Gel mobility shift assay (NS3 binding to ssRNA). The method, then:
GMSA was performed with slight modification as described previously. In brief, [γ-^32P] ATP-labeled single-stranded RNA (0.4 nM) was incubated in a buffer containing 30 mM Tris-HCl pH 7.5, 100 mM NaCl, 2 mM MgCl2, 1 mM DTT, 20 U of RNasin plus (Promega) in the presence of 300 nM NS3 protein with serial dilution of PBDE in DMSO at room temperature for 15 min in a final reaction volume of 20 μL. The protein-RNA complexes were loaded onto a 6% native-PAGE (acrylamide:bis = 19:1) and after electrophoresis in TBE buffer, the labeled RNA bands were visualized and quantified with an Image Reader FLA-9000 (Fujifilm) and Multi Gauge V3.11 software (Fujifilm), respectively.

In another data set the target is HCV NS3 helicase (Hepatitis C virus genotype 1b, UniProt Q9WMX2). The format is biochemical. The note with it: FRET screening; strongest of 41 extracts.
Data set [1] has as its target T1, bacterial alkaline phosphatase (Escherichia coli, UniProt P00634).
T1 construct: purchased Takara Bio BAPC75
The data set is described as follows: ATPase assay with bacterial alkaline phosphatase (specificity). The format is biochemical. The note with it: highest concentration tested, 200 μM. The method, then:
(§1) Following our previous report, unless otherwise stated, the standard assay reaction (10 μL) contained the following components: 25 mM MOPS-NaOH (pH 7.0), 1 mM DTT, 5 mM MgCl2, 5 mM CaCl2, 1 mM [γ-^32P] ATP, 300 nM NS3, and 0.1 μg/μL poly(U) with serial dilution of the tested compounds in DMSO. Samples were incubated at 37 °C for 10 min, and the reaction was terminated by adding 15 μL of stop solution (10 mM EDTA). A small portion (2 μL) of reaction mixture was spotted on a PEI-cellulose TLC plate (Merck Millipore, Darmstadt, Germany) and developed by ascending chromatography in 0.75 M LiCl/1 M formic acid solution for 25 min. The TLC plate was then air-dried, and applied to autoradiography measured by an Image Reader FLA-9000 and quantified by Multi Gauge V3.11 software (Fujifilm, Tokyo, Japan). For the bacterial alkaline phosphatase assay, the buffer provided with the kit (Takara Bio, Otsu, Japan) was used, and then subjected to the assay as described above.

Data set [2] deals with T2, NS3 ATPase activity (HCV NS3 protein) (Hepatitis C virus genotype 1b, UniProt Q9WMX2). The data set is described as follows: Radioisotope labeling ATP hydrolysis (ATPase) assay. To be noted: for NS3 ATPase inhibition (result in words): structure-activity discussion of Table 2. Type of data set: biochemical. The method, then:
as §1

The target in data set [3] is T2, NS3 ATPase activity (HCV NS3 protein). The data set is described as above. The format is biochemical. The note with it: PBDE 0.1 mM, NS3 600 nM, 1 mM ATP.
The subject of data set [4] is subgenomic replicon RNA of genotype 1b N strain. Nature of the data set: HCV replication assay (subgenomic replicon, luciferase). The format is cell-based. To be noted: Hepatitis C virus, genotype 1b strain N replicon, 72 h, read-out: suppression of HCV replication, EC50. The protocol: The cell lines harboring the subgenomic replicon RNAs of genotype 1b strain N [27] were seeded at 2 × 10^4 cells per well in a 48-well plate 24 h before treatment. The cells were treated with PBDE at various concentrations for 72 h and lysed in cell culture lysis reagent (Promega). A luciferase assay system (Promega) was used to determine the luciferase activity, and the luminescence was measured using Luminescencer-JNR AB-2100 (ATTO, Tokyo, Japan), corresponding to the expression level of the HCV replicon.
Background: Replicon systems follow genome replication, usually without infectious particles.

A further data set is described as follows: Toxicity assay (MTS). The note with it: cell lines harboring the subgenomic replicon RNAs, replicon cells, read-out: cytotoxic effect, CC50. Type of data set: cell-based. The method, then:
MTS assay was carried out to determine cytotoxicity using a CellTiter 96 aqueous one-solution cell proliferation assay kit (Promega) according to the manufacturer’s instructions.

The mark [5] stands for this setting: 300 nM NS3, 1 mM [γ-32P] ATP, read-out: NS3 ATPase Inhibition IC50.

T2 sequence (Q9WMX2 1027-1657): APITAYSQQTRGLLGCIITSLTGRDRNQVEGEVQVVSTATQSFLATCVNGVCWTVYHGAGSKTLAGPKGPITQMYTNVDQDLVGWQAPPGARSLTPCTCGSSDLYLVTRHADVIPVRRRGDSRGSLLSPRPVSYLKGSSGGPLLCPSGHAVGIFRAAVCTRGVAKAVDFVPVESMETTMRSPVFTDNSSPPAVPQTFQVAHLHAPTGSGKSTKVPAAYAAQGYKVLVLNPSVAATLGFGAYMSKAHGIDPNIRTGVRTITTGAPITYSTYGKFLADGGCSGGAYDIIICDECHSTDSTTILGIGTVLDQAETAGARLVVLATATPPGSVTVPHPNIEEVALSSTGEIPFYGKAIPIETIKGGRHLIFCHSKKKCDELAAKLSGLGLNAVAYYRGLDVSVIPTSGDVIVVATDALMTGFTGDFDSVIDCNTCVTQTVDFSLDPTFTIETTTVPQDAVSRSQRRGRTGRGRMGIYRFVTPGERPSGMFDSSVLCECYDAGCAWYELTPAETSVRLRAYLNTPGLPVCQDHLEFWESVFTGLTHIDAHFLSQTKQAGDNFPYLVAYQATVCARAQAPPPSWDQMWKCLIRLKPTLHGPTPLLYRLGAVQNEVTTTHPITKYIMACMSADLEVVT
Chain of NS3 RNA binding (Q9WMX2 1027-1657): as above
Chain of HCV NS3 helicase (Q9WMX2 1027-1657): as above
T1 sequence (P00634 22-471): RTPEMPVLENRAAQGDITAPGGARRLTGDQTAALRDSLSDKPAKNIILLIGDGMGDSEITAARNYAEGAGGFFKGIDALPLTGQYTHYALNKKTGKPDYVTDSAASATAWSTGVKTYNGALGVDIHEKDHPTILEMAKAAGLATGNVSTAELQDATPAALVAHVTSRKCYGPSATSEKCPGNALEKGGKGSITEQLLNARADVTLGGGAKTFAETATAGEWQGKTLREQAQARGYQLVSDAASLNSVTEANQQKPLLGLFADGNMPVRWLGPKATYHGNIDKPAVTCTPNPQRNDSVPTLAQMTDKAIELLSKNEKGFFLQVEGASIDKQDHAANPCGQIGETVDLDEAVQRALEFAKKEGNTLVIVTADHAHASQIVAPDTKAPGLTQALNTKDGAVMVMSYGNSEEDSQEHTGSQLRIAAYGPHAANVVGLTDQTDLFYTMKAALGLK

Take `Oc1cc(Br)cc(Br)c1Oc1ccc(Br)cc1Br` [Compound 1, 6-hydroxy-2,2',4,4'-tetrabromodiphenyl ether]: the figures for the pIC50 (on NS3 RNA binding; in data set [2]) were 4.17 and 4.10, respectively. Besides, the “inhibition of NS3 helicase activity” value at HCV NS3 helicase is 37%. Also, the “inhibition of ATPase activity of bacterial alkaline phosphatase” value in data set [1] is “no inhibition”. The “NS3 ATPase inhibition in presence and absence of poly(U) RNA” value in data set [3] is “significantly active in both the presence and absence of poly(U)”. Also, the negative-log EC50 (pEC50) in data set [4] was 5.48. Further, in the data set “Toxicity assay (MTS)”, the CC50 at 72 h is more than 5 µM.

Regarding `COc1cc(Br)cc(Br)c1Oc1ccc(Br)cc1Br` [Compound 2, PBDE methyl ether], in data set [2], the pIC50 was less than 3.70 and the “NS3 ATPase inhibition (result in words)” value is “complete loss of the inhibitory activity”.

On to `Oc1c(Br)cc(Br)cc1-c1cc(Br)cc(Br)c1O` [Compound 3, Bromophene], for which, in data set [2], the negative-log IC50 (pIC50) is 4.03 and the “NS3 ATPase inhibition (result in words)” value is recorded as “remained at the same level as that of PBDE (1)”.

Consider `Oc1cc(Cl)ccc1Oc1ccc(Cl)cc1Cl` [Compound 4, triclosan, reference compound], for which, in data set [2], the negative-log IC50 (pIC50) is 3.82 and the “NS3 ATPase inhibition (result in words)” value is recorded as “moderate levels of inhibition”.

`Oc1c(Br)cc(Br)cc1Br` [Compound 5, 2,4,6-tribromophenol]: in data set [2], the pIC50 was less than 3.70 and the “NS3 ATPase inhibition (result in words)” value is “did not exhibit the inhibitory activity”.

As to `CC(C)(c1cc(Br)c(O)c(Br)c1)c1cc(Br)c(O)c(Br)c1` [Compound 6, 3,3',5,5'-tetrabromobisphenol A], in data set [2], the pIC50 was 3.92 and the “NS3 ATPase inhibition (result in words)” value is “same level of inhibition as that of bromophene 3”.

Take `Oc1ccccc1-c1ccccc1` [Compound 7, O-hydroxybiphenyl]: in data set [2], the negative-log IC50 (pIC50) was less than 3.70 and the “NS3 ATPase inhibition (result in words)” value was “loss of the inhibitory activity”.

`Oc1ccc2cc(Br)ccc2c1-c1c(O)ccc2cc(Br)ccc12` [Compound 8, (R)-(−)-6,6'-dibromo-1,1'-bi-2-naphthol]: the negative logarithm of the IC50 (pIC50) in data set [2] (setting [5]) was 4.27. For the same compound, the “NS3 ATPase inhibition (result in words)” value in data set [2] was “most potent activity”.

With `CC(C)(c1cc(Cl)c(O)c(Cl)c1)c1cc(Cl)c(O)c(Cl)c1` [Compound 9, tetrachlorobisphenol A], in data set [2], the negative-log IC50 (pIC50) is 4.03 and the “NS3 ATPase inhibition (result in words)” value is “same level of inhibition as that of bromophene 3”.

Regarding `Oc1ccc2cc(Br)ccc2c1Br` [Compound 10, 1,6-dibromo-2-naphthol], in data set [2], the negative logarithm of the IC50 (pIC50) was less than 3.70 and the “NS3 ATPase inhibition (result in words)” value was “did not exhibit the inhibitory activity”.

In the case of `Oc1c(F)c(F)c(-c2c(F)c(F)c(F)c(F)c2F)c(F)c1F` [Compound 11, 2,3,5,6-tetrafluoro-4-(pentafluorophenyl)phenol], in data set [2], the pIC50 was less than 3.70 and the “NS3 ATPase inhibition (result in words)” value is “inactive”.

For the compound `Oc1c(Br)cc2ccccc2c1-c1c(O)c(Br)cc2ccccc12` [Compound 12, (R)-(+)-3-3'-dibromo-1,1'-bi-2-naphthol], the pIC50 in data set [2] (setting [5]) is less than 3.70. Besides, the “NS3 ATPase inhibition (result in words)” value in data set [2] is reported as “no activity”.

Consider `Oc1c(Br)cc2c(c1-c1c(O)c(Br)cc3c1CCCC3)CCCC2` [Compound 13, (R)-(+)-3,3'-dibromo-5,5',6,6',7,7',8,8'-octahydro-1,1'-bi-2,2'-naphthalenediol], for which the negative logarithm of the IC50 (pIC50) in data set [2] (setting [5]) is less than 3.70. In data set [2], the “NS3 ATPase inhibition (result in words)” value is “no activity”.

On to `CC(C)(c1cc(Br)c(OCCO)c(Br)c1)c1cc(Br)c(OCCO)c(Br)c1` [Compound 14, 4,4'-isopropylidenebis[2-(2,6-dibromophenoxy)ethanol]], for which, in data set [2], the pIC50 was less than 3.70 and the “NS3 ATPase inhibition (result in words)” value is “loss of activity”.

For `Oc1ccc(Cl)cc1-c1cc(Cl)c(Cl)c(Cl)c1Cl` [Compound 15, 2-Hydroxy-2',3',4',5,5'-pentachlorobiphenyl], in data set [2], the pIC50 is 4.27 and the “NS3 ATPase inhibition (result in words)” value is listed as “most potent inhibitory activity of all the analogs in this study”.

For `Oc1c(-c2ccccc2)cc(-c2ccc(Br)cc2)cc1-c1ccccc1` [Compound 16, 4-(4-bromophenyl)-2,6-diphenylphenol], the negative logarithm of the IC50 (pIC50) in data set [2] (setting [5]) was less than 3.70. The “NS3 ATPase inhibition (result in words)” value in data set [2] is listed as “did not show inhibitory activity”.

In the case of `Brc1ccc(Oc2ccc(Br)cc2Br)c(Br)c1` [Compound 17, 2,2',4,4'-tetrabromodiphenyl ether], in data set [2], the negative logarithm of the IC50 (pIC50) was less than 3.70 and the “NS3 ATPase inhibition (result in words)” value is listed as “complete loss of the inhibitory activity”.

Values taken from publication PMC6271602, “PBDE: Structure-Activity Studies for the Inhibition of Hepatitis C Virus NS3 Helicase” (Molecules, 2014).
